The structures appear in SMILES notation.

For one assay, the system named is causal fungus of apple tree scab (Venturia inaequalis). Nature of the assay: Test on the controlling efficacy against apple tree scab. The class given is in vivo. The note with it: apple seedling, foliar application, 4-fold concentration 200 ppm, 14 days after inoculation. From the text:
A seedling of an apple tree (the variety: Ohrin) grown in a pot was subjected to foliar application with a diluted emulsion of the emulsifiable concentrate of the compound of the present invention prepared in accordance with Formulation Example 1, which diluted emulsion was produced by diluting the concentrate with water to the specifically determined volume. On the following day after the application, the seedling was inoculated by spraying with a spore suspension of the causal fungus of apple tree scab (Venturia inaequalis) as obtained by culture on the PSA medium and maintained at 20° C. under humid conditions. Fourteen days after the inoculation, the protective value (%) was determined in accordance with the equation (1), and the controlling efficacy was assessed according the below-described criteria of judgment. [formula]
For the compound `O=C(NCCc1cccc(C(F)(F)F)c1)c1c(Cl)cccc1Cl` [comparison compound A, 2,6-dichloro-N-[2-{3-(trifluoromethyl)phenyl}ethyl]benzamide], the “controlling efficacy, criteria of judgment (protective value)” value is 0 (Less than 9% in protective value).

In the next assay the test system is southern root-knot nematode (Meloidogyne incognita). Nature of the assay: Test on the controlling efficacy against southern root-knot nematode. The note with it: melon nursery plant, plant foot irrigation, 500 ppm, 8 days after inoculation. The class given is in vivo. Also noted: key: A: No root knot.; B: Apparently smaller number of root knots than in non-treated section were present.; C: Root knots in the number equivalent to or higher than in non-treated section were present. The method, then:
An emulsion prepared by diluting an emulsifiable concentrate of the compound of the present invention, which was prepared in accordance with Formulation Example 1, to 500 ppm was irrigated to the plant foot of a pot-cultivated nursery plant raised from the seed of melon. One day after the irrigation, an aqueous suspension (about 500 nematodes/ml) of southern root-knot nematode was inoculated (soil irrigation) to a treated section and a non-treated section, and the pot was placed in a greenhouse at 25° C. Eight days after the inoculation, the root was washed with water, the number of root knots was counted, and the effect was assessed according to the following criteria of judgment. • Criteria of Judgment • A: No root knot. • B: Apparently smaller number of root knots than in non-treated section were present. • C: Root knots in the number equivalent to or higher than in non-treated section were present.
In the case of `O=C(NCCc1ccc(Cl)cc1Cl)c1ccccc1C(F)(F)F` [1-16], the “effect on number of root knots, criteria of judgment” value is “B”.
The same measure, in the same setting: the same measure for `O=C(NCC1(c2ccc(Cl)cc2Cl)CC1)c1ccccc1C(F)(F)F` [1-34]: “B”.
The same measure, in the same setting: as for `O=C(NCC1(c2ccc(Cl)cc2Cl)CC1)c1nccnc1Cl` [3′-43], the entry is “B”; as for `CC(Cc1ccc(Cl)cc1Cl)NC(=O)c1nccnc1Cl` (stereo not drawn) [3′-44], “B”.
Same read-out and setting: the same measure for `Cc1nccnc1C(=O)NCCc1ccc(-c2ccc(OC(F)(F)F)cc2)cc1` [3″-48]: “B”.
